EC50 and IC50 data for three compounds are collected here from ChEMBL document CHEMBL2429847, “Inhibitors of PI3Kβ as Potential Treatment for Cancer” (ACS Med Chem Lett, 2013).

The term pEC50 denotes the EC50 on a negative log10 scale, so that one unit is a factor of ten. High values mean a small EC50, low ones a large EC50. For orientation: pIC50 means −log10 of the IC50, conventionally taken in molar units.

pEC50, pIC50: −log10 of the molar value.

The test system of assay [1] is MDA-MB-468. As to the kind of experiment: Antiproliferative activity against PTEN-deficient human MDA-MB-468 cells after 6 days by Alamar blue assay. Format: functional, cell-based. To be noted: MDA-MB-468, 144 h. Background: The colour change of resazurin is a common sign of viable cells or microbes.
Assay [2] has as its target Phosphatidylinositol 4,5-bisphosphate 3-kinase catalytic subunit beta isoform (Homo sapiens, UniProt P42338). As to the kind of experiment: Inhibition of PI3Kbeta-mediated AKT phosphorylation at Ser473 in PTEN-deficient human MDA-MB-468 cells after 30 mins. Format: cell-based.

Sequence of Phosphatidylinositol 4,5-bisphosphate 3-kinase catalytic subunit beta isoform (P42338 whole entry, canonical isoform): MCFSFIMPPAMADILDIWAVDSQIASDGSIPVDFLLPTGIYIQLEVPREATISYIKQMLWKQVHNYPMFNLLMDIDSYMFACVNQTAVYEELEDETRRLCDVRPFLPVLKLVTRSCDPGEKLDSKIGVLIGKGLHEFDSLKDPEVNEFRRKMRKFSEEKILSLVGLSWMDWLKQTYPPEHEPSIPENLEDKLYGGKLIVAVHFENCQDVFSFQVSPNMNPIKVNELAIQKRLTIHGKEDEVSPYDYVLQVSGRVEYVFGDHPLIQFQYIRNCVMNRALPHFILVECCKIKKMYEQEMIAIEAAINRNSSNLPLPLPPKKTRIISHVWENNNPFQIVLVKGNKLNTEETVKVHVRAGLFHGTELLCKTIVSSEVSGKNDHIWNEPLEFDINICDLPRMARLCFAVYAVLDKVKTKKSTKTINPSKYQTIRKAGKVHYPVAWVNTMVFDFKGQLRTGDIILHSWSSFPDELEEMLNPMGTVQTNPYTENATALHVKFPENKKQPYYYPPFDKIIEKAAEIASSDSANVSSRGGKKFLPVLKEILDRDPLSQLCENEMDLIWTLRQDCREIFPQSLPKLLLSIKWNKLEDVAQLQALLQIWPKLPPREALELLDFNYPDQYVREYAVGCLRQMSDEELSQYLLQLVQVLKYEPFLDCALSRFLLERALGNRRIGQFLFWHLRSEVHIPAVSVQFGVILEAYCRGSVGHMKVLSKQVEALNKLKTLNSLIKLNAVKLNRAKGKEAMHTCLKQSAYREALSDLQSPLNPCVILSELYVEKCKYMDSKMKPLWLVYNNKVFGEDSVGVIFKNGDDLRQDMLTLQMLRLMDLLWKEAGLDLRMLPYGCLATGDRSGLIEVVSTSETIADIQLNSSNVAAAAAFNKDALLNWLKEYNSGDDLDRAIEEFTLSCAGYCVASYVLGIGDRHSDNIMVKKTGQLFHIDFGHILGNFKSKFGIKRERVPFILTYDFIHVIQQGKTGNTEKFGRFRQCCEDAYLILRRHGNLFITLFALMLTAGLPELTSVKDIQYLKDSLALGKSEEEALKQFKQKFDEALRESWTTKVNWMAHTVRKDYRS

For `Cc1c(Cl)cccc1Cn1c(C)nc2c(C(=O)O)cc(N3CCOCC3)nc21`, the pEC50 in assay [1] was 7.74. The compound further had a pIC50 in assay [2] of 7.80.
`Cc1nc2c(C(=O)O)cc(N3CCOCC3)nc2n1Cc1cccc(Cl)c1Cl` gave a negative logarithm of the EC50 (pEC50) in assay [1] of 6.82. Also, the negative-log IC50 (pIC50) in assay [2] is 7.38.
For `Cc1c(Cn2c(C)nc3c(C(=O)O)cc(N4CCOCC4)nc32)cccc1C(F)(F)F`, the pEC50 in assay [1] was 7.39. The compound further showed a negative logarithm of the IC50 (pIC50) in assay [2] of 6.36.
